Read-outs that look alike come from different tables or passages of the source.
Assays:
M14 = assay: in vitro melanoma cell growth inhibition (NCI screen)
ACHN = assay: in vitro renal cancer cell growth inhibition (NCI screen)
KM 12 = assay: in vitro colon cancer cell growth inhibition (NCI screen)
MALME-3M = assay: in vitro melanoma cell growth inhibition (NCI screen)
UACC-62 = assay: as above
NCI-H266 = assay: in vitro non-small cell lung cancer cell growth inhibition (NCI screen)
human tumor cell lines = type: cell-based; conditions: for GI50: Homo sapiens; for cytotoxicity against tumor cells (in words): cancer cell line panel
U 251 = assay: in vitro CNS cancer cell growth inhibition (NCI screen)
BT-549 = assay: in vitro breast cancer cell growth inhibition (NCI screen)
SK-MEL-5 = assay: in vitro melanoma cell growth inhibition (NCI screen)
HCT-15 = assay: in vitro colon cancer cell growth inhibition (NCI screen)
CCRF-CEM = assay: in vitro leukemia cell growth inhibition (NCI screen)
HL-60(TB) = assay: as above
HCT-116 = assay: in vitro colon cancer cell growth inhibition (NCI screen)
OVCAR-3 = assay: in vitro ovarian cancer cell growth inhibition (NCI screen)
NCI-H522 = assay: in vitro non-small cell lung cancer cell growth inhibition (NCI screen)
COLO-205 = assay: in vitro colon cancer cell growth inhibition (NCI screen)
MCF7/ADR-RES = assay: in vitro breast cancer cell growth inhibition (NCI screen)
SK-MEL-28 = assay: in vitro melanoma cell growth inhibition (NCI screen)
SW 620 = assay: in vitro colon cancer cell growth inhibition (NCI screen)
RPMI-8226 = assay: in vitro leukemia cell growth inhibition (NCI screen)
RXF-393 = assay: in vitro renal cancer cell growth inhibition (NCI screen)
K-562 = assay: in vitro leukemia cell growth inhibition (NCI screen)
PC-3 = assay: in vitro prostate cancer cell growth inhibition (NCI screen)
T-47D = assay: in vitro breast cancer cell growth inhibition (NCI screen)
UACC-257 = assay: in vitro melanoma cell growth inhibition (NCI screen)
HOP-92 = assay: in vitro non-small cell lung cancer cell growth inhibition (NCI screen)
MDA-N = assay: in vitro breast cancer cell growth inhibition (NCI screen)
NCI-H23 = assay: in vitro non-small cell lung cancer cell growth inhibition (NCI screen)
MDA-MB-435 = assay: in vitro breast cancer cell growth inhibition (NCI screen)
MCF-7 = assay: as above
IGROV1 = assay: in vitro ovarian cancer cell growth inhibition (NCI screen)
SR = assay: in vitro leukemia cell growth inhibition (NCI screen)
SK-OV-3 = assay: in vitro ovarian cancer cell growth inhibition (NCI screen)
MOLT-4 = assay: in vitro leukemia cell growth inhibition (NCI screen)

Row | SMILES | cytotoxicity log GI50 (M14) | cytotoxicity log GI50 (ACHN) | cytotoxicity log GI50 (KM 12) | cytotoxicity log GI50 (MALME-3M) | cytotoxicity log GI50 (UACC-62) | cytotoxicity log GI50 (NCI-H266) | cytotoxicity log GI50 (BT-549) | cytotoxicity log GI50 (SK-MEL-5) | cytotoxicity log GI50 (HCT-15) | cytotoxicity log GI50 (CCRF-CEM) | cytotoxicity log GI50 (HL-60(TB)) | cytotoxicity log GI50 (HCT-116) | cytotoxicity log GI50 (OVCAR-3) | cytotoxicity log GI50 (NCI-H522) | cytotoxicity log GI50 (COLO-205) | cytotoxicity log GI50 (MCF7/ADR-RES) | cytotoxicity log GI50 (SK-MEL-28) | cytotoxicity log GI50 (SW 620) | cytotoxicity log GI50 (RPMI-8226) | cytotoxicity log GI50 (RXF-393) | other results
1 | COc1ccc(C(=O)NC2=C(Cl)C(=O)c3ccccc3C2=O)cc1 [Compound 2g] | -6.20 M | -6.44 M | -5.82 M | -5.92 M | -6.12 M | -5.87 M | -5.77 M | -5.89 M | -6.37 M | -6.10 M | -6.35 M | -6.36 M | -5.79 M | -6.42 M | -5.76 M | -5.85 M | -6.17 M | -6.17 M | -6.02 M | -6.23 M | GI50 (human tumor cell lines; cancer cell panel, general / most cell lines, read-out: logGI50 values in the cancer cell line panel (converted)): ~1000 nM; cytotoxicity log GI50 (U 251): -5.83 M; cytotoxicity log GI50 (K-562): -5.85 M; cytotoxicity log GI50 (PC-3): -5.90 M; cytotoxicity log GI50 (T-47D): -5.90 M; cytotoxicity log GI50 (UACC-257): -5.79 M; cytotoxicity log GI50 (HOP-92): -5.82 M
2 | COc1ccc(-n2c(CCCC(=O)O)nc3c2C(=O)c2ccccc2C3=O)cc1 [Compound 59] | -4.81 M | – | – | -4.82 M | -4.63 M | – | -5.06 M | – | -4.35 M | -4.44 M | -4.51 M | -4.44 M | -4.48 M | -4.59 M | -4.43 M | – | – | – | -4.44 M | – | cytotoxicity log GI50 (MDA-N): -4.50 M; cytotoxicity log GI50 (NCI-H23): -4.36 M; cytotoxicity log GI50 (MDA-MB-435): -4.58 M; cytotoxicity log GI50 (MCF-7): -4.49 M; cytotoxicity log GI50 (UACC-257): -4.56 M; cytotoxicity log GI50 (HOP-92): -4.69 M
3 | COc1cc(OC)cc(C(=O)NC2=C(Cl)C(=O)c3ccccc3C2=O)c1 [Compound 2h] | -6.26 M | -6.39 M | -5.92 M | – | -6.82 M | – | -5.81 M | -5.89 M | -6.38 M | -6.70 M | -7.04 M | -6.35 M | – | -6.49 M | – | -5.83 M | -5.85 M | -6.24 M | -6.31 M | -6.28 M | cytotoxicity log GI50 (IGROV1): -5.86 M; cytotoxicity against tumor cells (in words) (human tumor cell lines): similarly potent cytotoxic activity; cytotoxicity log GI50 (K-562): -6.39 M; cytotoxicity log GI50 (PC-3): -6.24 M; cytotoxicity log GI50 (SR): -6.33 M; cytotoxicity log GI50 (T-47D): -5.85 M
4 | CCn1c(CCl)nc2c1C(=O)c1ccccc1C2=O [Compound 22] | – | – | – | -5.98 M | -5.89 M | -6.65 M | – | -6.38 M | – | -6.76 M | – | – | – | -6.53 M | – | – | – | – | – | – | GI50 (human tumor cell lines; cancer cells, printed as GI50, log scale values, read-out: GI50 values): 158 to 1000 nM; cytotoxicity against tumor cells (in words) (human tumor cell lines): highly active against many of the cancer cell types tested; cytotoxicity log GI50 (SK-OV-3): -6.29 M; cytotoxicity log GI50 (MOLT-4): -6.45 M; cytotoxicity log GI50 (SR): -6.40 M
